Experimental data reported in the supplement of paper PMC11451515.

System: P12-Ichikawa
Test: cell viability relative to DMSO control; higher = less cytotoxic
Settings: 48 h
Summary of the method: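 Viability is a per-plate percentage relative to DMSO wells, with cell-free wells as background. CellTiter-Glo One luminescence was read after 48 h at 37°C on 1536-well plates (5 μl) of NOMO1 or SEM (500 cells/well) or P12-Ichikawa (1000 cells/well) leukemia cells. The cells had been adapted for at least four passages in each medium and pin-dosed with library compounds in DMSO from 47 μM to 0.79 nM in 11 threefold steps.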

[1] = HPLM + 10% dialyzed FBS, 0.000781 µM
[2] = HPLM + 10% dialyzed FBS, 0.00234 µM
[3] = HPLM + 10% dialyzed FBS, 0.00702 µM
[4] = HPLM + 10% dialyzed FBS, 0.0211 µM
[5] = HPLM + 10% dialyzed FBS, 0.0632 µM
[6] = HPLM + 10% dialyzed FBS, 0.19 µM
[7] = HPLM + 10% dialyzed FBS, 0.569 µM
[8] = HPLM + 10% dialyzed FBS, 1.71 µM
[9] = HPLM + 10% dialyzed FBS, 5.12 µM
[10] = HPLM + 10% dialyzed FBS, 15.4 µM
[11] = HPLM + 10% dialyzed FBS, 46.1 µM
[12] = RPMI 5 mM glucose + 10% FBS, 0.000781 µM
[13] = RPMI 5 mM glucose + 10% FBS, 0.00234 µM
[14] = RPMI 5 mM glucose + 10% FBS, 0.00702 µM
[15] = RPMI 5 mM glucose + 10% FBS, 0.0211 µM
[16] = RPMI 5 mM glucose + 10% FBS, 0.0632 µM
[17] = RPMI 5 mM glucose + 10% FBS, 0.19 µM
[18] = RPMI 5 mM glucose + 10% FBS, 0.569 µM
[19] = RPMI 5 mM glucose + 10% FBS, 1.71 µM
[20] = RPMI 5 mM glucose + 10% FBS, 5.12 µM
[21] = RPMI 5 mM glucose + 10% FBS, 15.4 µM
[22] = RPMI 5 mM glucose + 10% FBS, 46.1 µM
[23] = RPMI 5 mM glucose + 10% dialyzed FBS, 0.000781 µM
[24] = RPMI 5 mM glucose + 10% dialyzed FBS, 0.00234 µM
[25] = RPMI 5 mM glucose + 10% dialyzed FBS, 0.00702 µM
[26] = RPMI 5 mM glucose + 10% dialyzed FBS, 0.0211 µM
[27] = RPMI 5 mM glucose + 10% dialyzed FBS, 0.0632 µM
[28] = RPMI 5 mM glucose + 10% dialyzed FBS, 0.19 µM
[29] = RPMI 5 mM glucose + 10% dialyzed FBS, 0.569 µM
[30] = RPMI 5 mM glucose + 10% dialyzed FBS, 1.71 µM
[31] = RPMI 5 mM glucose + 10% dialyzed FBS, 5.12 µM
[32] = RPMI 5 mM glucose + 10% dialyzed FBS, 15.4 µM
[33] = RPMI 5 mM glucose + 10% dialyzed FBS, 46.1 µM

SMILES	cell viability [1] [%]	cell viability [2] [%]	cell viability [3] [%]	cell viability [4] [%]	cell viability [5] [%]	cell viability [6] [%]	cell viability [7] [%]	cell viability [8] [%]	cell viability [9] [%]	cell viability [10] [%]	cell viability [11] [%]	cell viability [12] [%]	cell viability [13] [%]	cell viability [14] [%]	cell viability [15] [%]	cell viability [16] [%]	cell viability [17] [%]	cell viability [18] [%]	cell viability [19] [%]	cell viability [20] [%]	cell viability [21] [%]	cell viability [22] [%]	cell viability [23] [%]	cell viability [24] [%]	cell viability [25] [%]	cell viability [26] [%]	cell viability [27] [%]	cell viability [28] [%]	cell viability [29] [%]	cell viability [30] [%]	cell viability [31] [%]	cell viability [32] [%]	cell viability [33] [%]
CC(S)C(=O)NCC(=O)O (configuration not stated)	106	110	118	109	119	101	129	117	118	113	106	109	112	108	119	116	115	114	126	115	109	106	108	105	111	118	112	112	113	113	113	120	102
CCCCc1nc2cc(/C=C/C(=O)NO)ccc2n1CCN(CC)CC	93	98.5	103	95.9	95.7	104	90.1	83.7	3.65	2.43	4.19	86.9	96.3	96.2	83.5	101	91.3	95.7	85.7	12.3	2.22	3.51	95.7	95.6	93.5	90.4	100	101	98.6	79.5	17.6	1.97	3.51
CCN(CC)CCCC(C)Nc1nc(C)cc(Nc2ccc3nc(C)cc(N)c3c2)n1 (configuration not stated)	101	107	109	117	122	122	126	115	130	114	118	108	109	104	121	117	126	124	112	129	107	112	107	113	111	120	117	123	126	124	126	118	101
CCCCCN(CCC12CC3CC(CC(C3)C1)C2)C(=O)NCCCc1ccncc1	113	112	110	114	115	104	109	108	104	97.1	97.8	101	109	112	107	107	105	111	106	109	92.7	99.1	115	110	109	118	114	114	109	113	105	101	98.9
CS[C@H]1SC[C@@H]2C(=O)N(C)[C@H](C(C)C)C(=O)OC[C@H](NC(=O)c3cnc4ccccc4n3)C(=O)N[C@H](C)C(=O)N(C)[C@H]1C(=O)N(C)[C@H](C(C)C)C(=O)OC[C@H](NC(=O)c1cnc3ccccc3n1)C(=O)N[C@H](C)C(=O)N2C	93.5	97.9	97.7	59	6.91	9.39	11.9	11.9	9.92	9.92	13.2	88	98.9	74.9	44.9	6.52	7.51	8.83	9.76	7.33	7.34	6.52	88.5	91.2	68.6	29.6	6.86	8.69	9.15	9.6	8.79	11.4	11.8
COc1cc2ncn(-c3cc(OCc4ccccc4C(F)(F)F)c(C(N)=O)s3)c2cc1OC	114	122	108	112	121	110	95.2	45.2	13.8	11.9	11.8	117	112	121	112	110	111	115	71.5	12.2	11.8	11.1	113	111	111	112	123	109	103	85.3	19.5	17.4	12.8
Oc1ccc2ccccc2c1SSc1c(O)ccc2ccccc12	98.4	100	105	108	106	109	110	109	109	105	94.2	105	114	106	107	101	109	116	109	106	101	62.2	88.3	98.9	95.5	109	99.2	104	105	103	98.3	94.3	52.3
N#CC[C@H](C1CCCC1)n1cc(-c2ncnc3[nH]ccc23)cn1	95.7	95.2	98.5	98.1	98.6	90.3	89.4	91.8	72.9	52.8	40	93.7	95.7	93.4	92.6	103	89.2	83.1	95.4	75.4	54.5	23.3	90.8	89	86.3	87.4	89.6	88.3	82.2	87.7	70.4	41.1	23.3
CCC(C1CCC(C)C(O1)C(C)C(O)C(C)C(=O)C(CC)C2OC\3(O[C@]4(CC[C@@](C)(O4)C5CC[C@@](O)(CC)C(C)O5)C(O)\C=C3)C(C)CC2C)C([O-])=O (some centres not stated)	103	112	109	101	106	106	105	82.8	74.5	74.8	64.5	85	111	101	111	104	109	100	73.7	60.9	56.1	42.5	96.4	107	109	113	112	108	86.2	68.8	55.7	44.9	41.1
NC[C@H]1O[C@H](O[C@H]2[C@H](O)[C@@H](O[C@H]3O[C@H](CO)[C@@H](O)[C@H](N)[C@H]3O)[C@H](N)C[C@@H]2N)[C@H](N)C[C@@H]1O	112	98.8	110	106	117	109	106	99.8	110	101	96.6	102	111	95.9	116	107	106	97.1	85.9	94	98.5	105	110	116	117	119	112	88.5	79.7	91.6	91	94.6	117
CC(C)c1c(C(=O)Nc2ccccc2)c(-c2ccccc2)c(-c2ccc(F)cc2)n1CC[C@@H](O)C[C@@H](O)CC(=O)[O-]	101	102	106	99.4	98.6	97.4	106	91.2	85.7	85.2	47.2	97.5	92.6	99.6	94.7	97.1	87.9	93.3	87.6	68.4	56.3	23.2	97.4	91.9	91.2	92	95.7	90.5	89.5	83.8	85.1	67.6	36.3
CN1CCC(CC1)=C2C3=C(C=CC=C3)\C=C/C4=C2C=CC=C4	106	125	117	130	122	122	126	133	128	118	108																						
COc1cc(OC)c(C(=O)CCCN2CCCC2)c(OC)c1	116	120	128	119	120	116	112	113	118	117	116	119	123	132	130	125	124	122	109	112	111	111											
COC(=O)Nc1nc2ccc([S+]([O-])c3ccccc3)cc2[nH]1 (configuration not stated)	109	119	111	114	111	116	122	119	95.5	55.5	86	100	115	103	119	118	120	115	135	110	74.4	92.4	118	120	117	118	124	118	128	122	117	95	97.4
N#Cc1ccnc(N2C(=O)CC[C@H]2C(=O)N(c2cncc(F)c2)[C@H](C(=O)NC2CC(F)(F)C2)c2ccccc2Cl)c1	91.1	95.2	93.7	95.4	94.9	97	74.8	48.3	10.1	10.1	15.5	88	90.2	95.4	93.1	90.5	90.5	80.5	71.5	25.4	16.2	7.62	95.5	89.9	88.5	96.7	97.5	95.6	85	83.7	35.6	26.2	18.8
